Like-named read-outs stand apart in the source and are kept apart here.
Assays:
Format in all cases: cell-based
MmaR (MmaRDSM5686) = target: T1, MmaR (MmaRDSM5686) (Methylobacterium fujisawaense, UniProt A0ABR6DCX3); assay: mScarlet reporter activation in M. extorquens AWP370
T1 construct: gene GGQ91_003337; mmaR inserted in genome of Methylorubrum extorquens AWP227 (mlaR/mlaI deleted) under native mlaR promoter; reporter strain AWP370 with mmaI promoter-mScarlet

MmaI (Ga0373204_3345) = target: T2, MmaI (Ga0373204_3345) (Methylobacterium fujisawaense, UniProt A0ABR6DCY1); assay: LC-MS/MS, NMR of culture extract; deletion mutant control; conditions: native strain grown on methanol
T2 construct: gene GGQ91_003338; native expression in DSM5686; deletion mutant as control
T2 sequence (A0ABR6DCY1 entry or part of it): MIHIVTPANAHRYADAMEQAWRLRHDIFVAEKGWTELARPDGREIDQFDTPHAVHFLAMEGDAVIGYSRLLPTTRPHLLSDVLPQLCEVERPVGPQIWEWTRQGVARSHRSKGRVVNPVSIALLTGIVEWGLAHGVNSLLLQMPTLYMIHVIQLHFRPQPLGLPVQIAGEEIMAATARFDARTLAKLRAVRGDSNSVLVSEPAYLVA

Mrad2831_5763 (MmaI) = target: T3, Mrad2831_5763 (MmaI) (Methylobacterium radiotolerans, UniProt B1M2Q9); assay: LC-MS/MS of culture extract after heterologous expression; conditions: product identified by m/z, retention time and fragmentation
T3 construct: heterologously expressed
T3 sequence (B1M2Q9 1-207): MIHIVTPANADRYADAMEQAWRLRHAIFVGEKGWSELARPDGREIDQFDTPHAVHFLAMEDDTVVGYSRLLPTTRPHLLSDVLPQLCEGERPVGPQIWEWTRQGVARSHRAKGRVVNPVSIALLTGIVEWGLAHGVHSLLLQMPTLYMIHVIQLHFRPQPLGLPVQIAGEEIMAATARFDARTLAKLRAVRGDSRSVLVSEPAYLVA

T1 sequence (A0ABR6DCX3 entry or part of it): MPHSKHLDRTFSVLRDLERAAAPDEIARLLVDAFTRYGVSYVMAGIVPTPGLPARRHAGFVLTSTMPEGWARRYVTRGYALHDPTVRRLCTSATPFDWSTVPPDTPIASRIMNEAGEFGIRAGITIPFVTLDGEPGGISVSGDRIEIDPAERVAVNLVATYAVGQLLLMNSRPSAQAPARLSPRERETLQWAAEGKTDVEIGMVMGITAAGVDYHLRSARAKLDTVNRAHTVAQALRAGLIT

EC50 (MmaR (MmaRDSM5686)) [nM]	EC50 (MmaR (MmaRDSM5686); purified natural signal added, mmaI promoter-mScarlet reporter, agonist) [nM]	Compound	LC-MS/MS, NMR of culture extract; deletion mutant control (MmaI (Ga0373204_3345))	LC-MS/MS of culture extract after heterologous expression (Mrad2831_5763 (MmaI))
1.7		CCCCCCCCCC(O)CC(=O)N[C@H]1CCOC1=O (stereo partly shown) [3-OH-C12-HSL]		
	0.2	CCCCCC/C=C\C[C@@H](O)CC(=O)NC1CCOC1=O (stereo partly drawn) [3R-OH-5Z-C12:1-HSL, N-(3R-hydroxy-5-cis-dodecenoyl)-L-homoserine lactone]	this feature was not present in a culture of an in-frame, unmarked deletion mutant	we observed a feature with the same m/z, retention time, and fragmentation pattern

From publication PMC10790750, “A widespread methylotroph acyl-homoserine lactone synthase produces a new quorum sensing signal that regulates swarming in Methylobacterium fujisawaense” (mBio, 2023)
